Measured values from US20100184815A1 (priority 2008, published 2010).

How the values were obtained:
Type in all cases: cell-based
[1] = target: T1, Gal-4 hPPARα (Homo sapiens, UniProt Q07869); assay: Gal4-hPPARα transient transfection reporter assay in Cos cells; details: luciferase reporter, 24 hours with compound, scale 1-5, read-out: Gal-4 hPPAR α EC50 (scaled number)
T1 construct: Plasmids pGal4-hPPARα, pGal4-hPPARγ, pGal4-hPPARδ and pG5-TK-pGL3 were constructed as previously described by Staels, Bart, et al., Nature 1998 Jun; 25
T1 sequence (Q07869 200-468 limits assumed): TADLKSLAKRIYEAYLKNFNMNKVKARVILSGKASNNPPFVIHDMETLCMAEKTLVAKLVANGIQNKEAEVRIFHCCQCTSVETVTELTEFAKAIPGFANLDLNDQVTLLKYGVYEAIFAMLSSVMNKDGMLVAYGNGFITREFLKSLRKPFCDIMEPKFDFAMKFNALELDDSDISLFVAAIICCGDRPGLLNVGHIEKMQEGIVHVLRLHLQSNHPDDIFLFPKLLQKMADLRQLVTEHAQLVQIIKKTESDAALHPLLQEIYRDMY
Method: (§1) Construction of recombinant plasmids. Plasmids pGal4-hPPARα, pGal4-hPPARγ, pGal4-hPPARδ and pG5-TK-pGL3 were constructed as previously described by Staels, Bart, et al., Nature 1998 Jun. 25; 393 (6687): 790-793, by Staels (Institut Pasteur de Lille, FR).
(§2) Transient transfection assays. Cos cells were seeded in 60-mm dishes at a density of 5.5×10^5 cells/dish in Dulbecco's modified Eagle's medium (DMEM) supplemented with 10% fetal calf serum (FCS) and incubated at 37° C. for 24 hours before transfection. Cells were transfected in Opti-MEM (Gibco; Invitrogen, Carlsbad, Calif.) without FCS for 3 hours at 37° C., using polyethylenimine, with reporter and expression plasmids. The plasmid pBluescript (Stratagene, La Jolla, Calif.) was used as carrier DNA to set the final amount of DNA to 5.5 μg/dish. The pCMV-b-galactosidase expression plasmid was cotransfected as a control for transfection efficiency. Transfection was stopped by the addition of DMEM supplemented with 10% FCS, and cells were then incubated at 37° C. After 16 hours, cells were trypsinized and seeded in 96-well plates at the density of 2×10^4 cells/well and incubated for 6 hours in 10% FCS-containing DMEM. Cells were then incubated for 24 hours in DMEM containing 0.2% FCS and increasing concentrations of the compound tested or vehicle (DMSO). At the end of the experiment, cells were washed once with ice-cold PBS, lysed and the luciferase and b-galactosidase assays were performed in a luminometer and spectrophotomer. Transfection efficiencies were normalized with the b-galactosidase activity assay. Half-maximal effective concentration (EC50) was estimated using Prism software (GraphPad). All transfection experiments were performed at least three times.
(§3) In the following tables, proprietary compound EC50 values for hPPAR α, β, δ and γ are shown. The EC50 value is the concentration of a drug that induces a response halfway between the baseline and maximum, and is commonly used as a measure of drug potency. EC50 values are reported on a scale of 1 through 5, wherein the value scale is defined for each receptor as follows: […]

[2] = target: T2, Gal-4 hPPARγ (Homo sapiens, UniProt P37231); assay: Gal4-hPPARγ transient transfection reporter assay in Cos cells; details: luciferase reporter, 24 hours with compound, scale 1-5, read-out: Gal-4 hPPAR γ EC50 (scaled number)
T2 construct: Plasmids pGal4-hPPARα, pGal4-hPPARγ, pGal4-hPPARδ and pG5-TK-pGL3 were constructed as previously described by Staels, Bart, et al., Nature 1998 Jun; 25
T2 sequence (P37231 238-505 limits assumed): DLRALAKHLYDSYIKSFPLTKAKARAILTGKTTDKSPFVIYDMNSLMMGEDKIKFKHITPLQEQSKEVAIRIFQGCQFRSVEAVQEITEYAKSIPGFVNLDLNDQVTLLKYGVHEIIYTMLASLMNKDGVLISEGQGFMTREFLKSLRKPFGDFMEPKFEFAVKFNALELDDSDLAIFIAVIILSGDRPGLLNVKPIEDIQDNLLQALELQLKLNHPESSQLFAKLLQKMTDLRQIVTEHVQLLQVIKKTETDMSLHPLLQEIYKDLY
Method: as §1, §2, §3

[3] = target: T3, Gal-4 hPPARβ/δ (Homo sapiens, UniProt Q03181); assay: Gal4-hPPARδ transient transfection reporter assay in Cos cells; details: luciferase reporter, 24 hours with compound, scale 1-5, read-out: Gal-4 hPPAR β/δ EC50 (scaled number)
T3 construct: Plasmids pGal4-hPPARα, pGal4-hPPARγ, pGal4-hPPARδ and pG5-TK-pGL3 were constructed as previously described by Staels, Bart, et al., Nature 1998 Jun; 25
T3 sequence (Q03181 171-441 limits assumed): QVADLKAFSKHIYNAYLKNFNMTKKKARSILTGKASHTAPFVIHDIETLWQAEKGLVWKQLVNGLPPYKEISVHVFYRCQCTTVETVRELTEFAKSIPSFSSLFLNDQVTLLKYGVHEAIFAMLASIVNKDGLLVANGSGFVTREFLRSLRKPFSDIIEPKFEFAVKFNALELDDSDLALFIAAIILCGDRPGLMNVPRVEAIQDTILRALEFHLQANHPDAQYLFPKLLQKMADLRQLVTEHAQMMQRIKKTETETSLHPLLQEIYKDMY
Method: as §1, §2, §3

Compound	EC50 [1]	EC50 [2]	EC50 [3]
CC(C)(Sc1ccc(C(=O)OCCc2cn(Cc3ccc(C(C)(C)C)cc3)nn2)cc1)C(=O)O [Compound 144, 4-(1-Carboxy-1-methyl-ethylsulfanyl)-benzoic acid 2-[1-(4-tert-butyl-benzyl)-1H-1,2,3-triazol-4-yl]-ethyl ester]	51 to 200 nM	> 1000 nM	> 1000 nM
Cc1ccc(Cn2cc(CCOC(=O)c3ccc(SC(C)(C)C(=O)O)cc3)nn2)cc1 [Compound 145, 4-(1-Carboxy-1-methyl-ethylsulfanyl)-benzoic acid 2-[1-(4-methyl-benzyl)-1H-1,2,3-triazol-4-yl]-ethyl ester]	201 to 999 nM	> 1000 nM	> 1000 nM
CCCn1c(COC(=O)c2ccc(SC(C)(C)C(=O)O)cc2)nn(Cc2ccc(F)cc2)c1=O [Compound 165, 2-(4-(((1-(4-fluorobenzyl)-5-oxo-4-propyl-4,5-dihydro-1H-1,2,4-triazol-3-yl)methoxy)carbonyl)phenylthio)-2-methylpropanoic acid]	51 to 200 nM	> 1000 nM	> 1000 nM
CCCn1c(COC(=O)c2ccc(SC(C)(C)C(=O)O)cc2)nn(Cc2cccc(C(F)(F)F)c2)c1=O [Compound 176, 2-methyl-2-(4-(((5-oxo-4-propyl-1-(3-(trifluoromethyl)benzyl)-4,5-dihydro-1H-1,2,4-triazol-3-yl)methoxy)carbonyl)phenylthio)propanoic acid]	51 to 200 nM	> 1000 nM	> 1000 nM
CCCn1c(COC(=O)c2ccc(SC(C)(C)C(=O)O)cc2)nn(Cc2ccc(SC(F)(F)F)cc2)c1=O [Compound 179, 2-methyl-2-(4-(((5-oxo-4-propyl-1-(4-(trifluoromethylthio)benzyl)-4,5-dihydro-1H-1,2,4-triazol-3-yl)methoxy)carbonyl)phenylthio)propanoic acid]	51 to 200 nM	> 1000 nM	> 1000 nM
CCn1c(COC(=O)c2ccc(SC(C)(C)C(=O)O)cc2)nn(Cc2ccc(C)cc2)c1=O [Compound 193, 2-(4-(((4-ethyl-1-(4-methylbenzyl)-5-oxo-4,5-dihydro-1H-1,2,4-triazol-3-yl)methoxy)carbonyl)phenylthio)-2-methylpropanoic acid]	51 to 200 nM	> 1000 nM	> 1000 nM
CCn1c(COC(=O)c2ccc(OC(C)(C)C(=O)O)cc2)nn(Cc2ccc(C(C)(C)C)cc2)c1=O [Compound 196, 2-(4-(((1-(4-tert-butylbenzyl)-4-ethyl-5-oxo-4,5-dihydro-1H-1,2,4-triazol-3-yl)methoxy)carbonyl)phenoxy)-2-methylpropanoic acid]	51 to 200 nM	> 1000 nM	> 1000 nM
CCCCCCn1c(COC(=O)c2ccc(SC(C)(C)C(=O)O)cc2)nn(Cc2ccc(C(F)(C(F)(F)F)C(F)(F)F)cc2)c1=O [Compound 203, 2-(4-(((4-hexyl-5-oxo-1-(4-(perfluoropropan-2-yl)benzyl)-4,5-dihydro-1H-1,2,4-triazol-3-yl)methoxy)carbonyl)phenylthio)-2-methylpropanoic acid]	1 to 50 nM	> 1000 nM	> 1000 nM

More lines, now with the values ahead:

EC50 [1]	EC50 [2]	EC50 [3]	Compound
1 to 50 nM	> 1000 nM	> 1000 nM	C[C@@H](OC(=O)c1ccc(SC(C)(C)C(=O)O)cc1)c1cn(Cc2cccc(C(F)(F)F)c2)nn1 [Compound 139, 4-(1-Carboxy-1-methyl-ethylsulfanyl)-benzoic acid (R)-1-[1-(3-trifluoromethyl-benzyl)-1H-1,2,3-triazol-4-yl]-ethyl ester]
1 to 50 nM	> 1000 nM	> 1000 nM	C[C@@H](OC(=O)c1ccc(SC(C)(C)C(=O)O)cc1)c1cn(Cc2cc(C(F)(F)F)cc(C(F)(F)F)c2)nn1 [Compound 140, 4-(1-Carboxy-1-methyl-ethylsulfanyl)-benzoic acid (R)-1-[1-(3,5-bis-trifluoromethyl-benzyl)-1H-1,2,3-triazol-4-yl]-ethyl ester]
1 to 50 nM	> 1000 nM	> 1000 nM	CCCn1c(COC(=O)c2ccc(SC(C)(C)C(=O)O)cc2)nn(Cc2ccc(-c3ccccc3)cc2)c1=O [Compound 163, 2-(4-(((1-(biphenyl-4-ylmethyl)-5-oxo-4-propyl-4,5-dihydro-1H-1,2,4-triazol-3-yl)methoxy)carbonyl)phenylthio)-2-methylpropanoic acid]
1 to 50 nM	> 1000 nM	> 1000 nM	CCCn1c(COC(=O)c2ccc(SC(C)(C)C(=O)O)cc2)nn(Cc2ccc(Br)cc2)c1=O [Compound 164, 2-(4-(((1-(4-bromobenzyl)-5-oxo-4-propyl-4,5-dihydro-1H-1,2,4-triazol-3-yl)methoxy)carbonyl)phenylthio)-2-methylpropanoic acid]
1 to 50 nM	201 to 999 nM	> 1000 nM	CCCn1c(COC(=O)c2ccc(SC(C)(C)C(=O)O)cc2)nn(Cc2cc(C(F)(F)F)cc(C(F)(F)F)c2)c1=O [Compound 177, 2-(4-(((1-(3,5-bis(trifluoromethyl)benzyl)-5-oxo-4-propyl-4,5-dihydro-1H-1,2,4-triazol-3-yl)methoxy)carbonyl)phenylthio)-2-methylpropanoic acid]
1 to 50 nM	> 1000 nM	> 1000 nM	CCn1c(COC(=O)c2ccc(SC(C)(C)C(=O)O)cc2)nn(Cc2ccc(C(C)(C)C)cc2)c1=O [Compound 195, 2-(4-(((1-(4-tert-butylbenzyl)-4-ethyl-5-oxo-4,5-dihydro-1H-1,2,4-triazol-3-yl)methoxy)carbonyl)phenylthio)-2-methylpropanoic acid]
1 to 50 nM	> 1000 nM	> 1000 nM	CCn1c(COC(=O)c2ccc(SC(C)(C)C(=O)O)cc2)nn(Cc2ccc(C(F)(F)F)cc2)c1=O [Compound 197, 2-(4-(((4-ethyl-5-oxo-1-(4-(trifluoromethyl)benzyl)-4,5-dihydro-1H-1,2,4-triazol-3-yl)methoxy)carbonyl)phenylthio)-2-methylpropanoic acid]
1 to 50 nM	> 1000 nM	> 1000 nM	CCCCCCn1c(COC(=O)c2ccc(SC(C)(C)C(=O)O)cc2)nn(Cc2ccc(C(OC)(C(F)(F)F)C(F)(F)F)cc2)c1=O [Compound 201, 2-(4-(((1-(4-(1,1,1,3,3,3-hexafluoro-2-methoxypropan-2-yl)benzyl)-4-hexyl-5-oxo-4,5-dihydro-1H-1,2,4-triazol-3-yl)methoxy)carbonyl)phenylthio)-2-methylpropanoic acid]
1 to 50 nM	> 1000 nM	> 1000 nM	CCCCCCn1c(COC(=O)c2ccc(OC(C)(C)C(=O)O)cc2)nn(Cc2ccc(C(OC)(C(F)(F)F)C(F)(F)F)cc2)c1=O [Compound 202, 2-(4-(((1-(4-(1,1,1,3,3,3-hexafluoro-2-methoxypropan-2-yl)benzyl)-4-hexyl-5-oxo-4,5-dihydro-1H-1,2,4-triazol-3-yl)methoxy)carbonyl)phenoxy)-2-methylpropanoic acid]
